Experiments:
[1] = tested on: Lewis Lung carcinoma cells; assay: Combination therapy in Lewis Lung carcinoma model (tumor volume); format: in vivo, C57BL/6 mice; settings: CTX 50 mg/kg injected on days 5, 7 and 9 after implantation
Protocol: Lewis Lung carcinoma cells (2.5 x 10^6 cells) prepared from a brei carried in C57BL/6 mice were injected sub-cutaneously into the hind legs of mice.

Lewis lung carcinomas = assay: Murine Lewis lung carcinoma model (tumor volume); format: in vivo, C57BL/6 mice; settings: day 32 after cancer cell injection, vs control group
Protocol: Lewis lung carcinomas were implanted sub-cutaneously into the foot pad of male C57BL/6 mice. The mice were subsequently treated with 4-[5-(4-chlorophenyl)-3-(difluoromethyl)-1H-pyrazol-1-yl)benzenesulfonamide. The drug was supplied in the drinking water at 6 mg/kg/day. […] The drug was supplied in the drinking water at the maximum tolerated dose of […]. A total of 10 mice/compound were tested. Tumor volume was determined twice a week using a plethysmometer. The % inhibition value is calculated by calculating the difference in tumor size compared with the control group.

PC-3 cells = assay: Human prostate cancer PC-3 tumors in nude mice; format: in vivo; settings: 20 mg/kg/day in water
Protocol: (§1) Two human prostate cancer cell lines (PC-3 and LNCaP) were obtained (ATCC) to determine the efficacy of cyclooxygenase-2 inhibitors to inhibit tumor growth in a therapeutic model. In addition, the LNCaP cell line secretes prostate serum antigen (PSA) when grown in nude mice.
PC-3 cells (10^6 cells/0.2 ml of 30% matrigel) in RPMI 1640 medium was injected on the back of nude mice. […] After 45 days, PGE2 and TXB2 were measured.

LNCaP = assay: Human prostate cancer LNCaP tumors in nude mice; format: in vivo; settings: dose equivalent to 6 mg/kg/day in the drinking water
From the text: as §1
PSA level was reduced to approximately 50% as judged by western blotting.

O=P1(N(CCCl)CCCl)NCCCO1 (centres unmarked) [CTX, Cyclophosphamide]
Tumor Volume (Day 22) % Inhibition [1]: 57%

NS(=O)(=O)c1ccc(-n2nc(C(F)F)cc2-c2ccc(Cl)cc2)cc1 [COX-2 inhibitor, 4-[5-(4-chlorophenyl)-3-(difluoromethyl)-1H-pyrazol-1-yl]benzenesulfonamide]
Tumor Volume (Day 32) % Inhibition (Lewis lung carcinomas; 6 mg/kg/day in the drinking water): 70.86% | inhibited tumor growth (PC-3 cells; administered from day 28, after 45 days): 55% | PGE2 levels reduced (PC-3 cells; measured after 45 days): 80-90% | TXB2 levels reduced (PC-3 cells; measured after 45 days): 80-90% | inhibited the growth of the tumor (LNCaP; day 58): 55% | PSA level was reduced to (LNCaP; judged by western blotting): approximately 50%

COc1ccc2c(c1)c(CC(=O)O)c(C)n2C(=O)c1ccc(Cl)cc1 [Indomethacin, indomethacin, reference compound]
Tumor Volume (Day 32) % Inhibition (Lewis lung carcinomas; 2 mg/kg/day (maximum tolerated dose) in the drinking water): 62.90%

— patent EP1479385B1, “Use of cyclooxygenase-2 inhibitors in the treatment and prevention of neoplasia” (G.D. Searle LLC, priority 1996, dated 1998)
